Experimental data from patent US20260335272A1, “SAGERINIC ACID AND COMPOSITIONS CONTAINING SAME, FOR USE IN THE PREVENTION AND/OR TREATMENT OF SENESCENCE-RELATED DISORDERS IN A HUMAN OR ANIMAL” (A2P SCIENCES, priority 2022, published 2026).

Assays:
[1] = Protein deglycating activity: release of benzoic acid from 1-phenyl-1,2-propanedione (PPD), HPLC; conditions: for Activity (protein deglycating activity): 0.25% (w/V) product, 0.375% (w/V) PPD, 37 °C, 24 hours, phosphate buffer pH 7.4-methanol 50/50, benzoic acid by HPLC at 229 nm
Description: The test products in 0.25% (w/V) solution are left in contact with a 0.375% (w/V) solution of 1-phenyl-1,2-propanedione (PPD) for 24 hours at 37 °C. An HPLC dosing, at 229 nm after passage through an Ascentis® Express C18 column, was carried out at TO and again after 24 hours so as to determine the benzoic acid content. Calculating the percentage of pmol of benzoic acid/μmol of PPD in the reaction medium determines the activity of the deglycants.
Dissolve 0.178 g monopotassium phosphate and 0.955 g dibasic sodium phosphate dihydrate in 100 ml purified water. The pH is adjusted if necessary.
A mixture is made with 50 ml phosphate buffer pH 7.4 and 50 ml methanol.
A solution of exactly 0.375% (w/V) PPD is made in the mixture buffer phosphate pH 7.4—methanol (50/50).
A solution of approximately 0.25% (w/V) of the product to be tested is made in the mixture buffer phosphate pH 7.4—methanol (50/50).
Product to be tested: Alagebrium chloride (MedChem Express, ref. HY-106024B), Sagerinic acid (prepared according to example 5.1.).
A stock solution of approximately 0.08% (w/V) benzoic acid is made in ethyl alcohol. This solution is diluted 1:10 (V/V) in purified water (D).
(D) is then diluted 1:5, 2:5, 3:5 and 4:5 (V/V) in purified water. (D1, D2, D3 and D4).
A linear calibration line was established: area of the benzoic acid peak, with a retention time of 9.17 min and observed at 229 nm, as a function of the concentration in % (w/V).
(§1) A series of hermetically sealed pillboxes are filled with:
Stir after each addition.
0.05 ml is taken from each pillbox to measure the benzoic acid content at TO. The pillboxes are resealed and placed in an oven at 37 °C for a minimum of 21 to a maximum of 24 hours.
The same volume will be taken for dosing on leaving the oven.
The time at 37 °C must be exactly the same for the control and all the tests, so they are prepared as they go along.
The 0.05 ml samples are diluted 1:5 (V/V) in purified water, i.e. by adding 0.2 ml. […]
The % of pmol of benzoic acid/μmol of PPD in the reaction medium is calculated: • TT0×10000×100/122.12×12.655 […]

[2] = DPPH free radical elimination (anti-radical / oxidative stress effect); assay type: physicochemical; conditions: for Activity (elimination of DPPH free radical): antioxidant solution 0.0007% (ascorbic acid in ethyl alcohol, sagerinic acid in water), 0.15 ml in 4.5 ml, phosphate buffer pH 7, 5 min, OD at 519 nm
Description: The principle of the method for assessing the effect of sagerinic acid compared to ascorbic acid as a reference molecule is based on the elimination of a stable free radical, the 2,2-Diphenyl-1-picrylhydrazyl (DPPH Sigma Aldrich ref D9132).
Dissolve 0.177 g monopotassium phosphate and 0.730 g dibasic sodium phosphate dihydrate in 50 ml purified water. The pH is adjusted if necessary.
A solution of exactly 0.0027% (w/V) DPPH in methanol is made.
A solution of exactly 0.1% (w/V) ascorbic acid (Riedel-de-Haen, ref.33034) is made in ethyl alcohol. This solution is diluted to 0.0007% (V/V) in ethyl alcohol.
A solution of exactly 0.1% (w/V) sagerinic acid (prepared according to example 5.1.) is made in water. This solution is diluted to 0.0007% (V/V) in water.
as §1
For the sample and the blank: • After addition, stir for 5 min on a magnetic stirrer • Add 4 ml toluene • Stir for 30 seconds with a magnetic stirrer • Allow to settle for 20 seconds to 1 minute (if necessary) • Recover the organic phase from the top using an automatic pipette, taking care not to recover any aqueous phase • Read the OD of the organic phase using a spectrophotometer at 519 nm

SIRT1 = target: T1, SIRT1 (Homo sapiens, UniProt Q96EB6); assay: SIRT1 Inhibitor/Activator screening kit (ab283377), fluorimetric sirtuin-1 activation; assay type: biochemical; conditions: for Activity (activation of sirtuin-1): 2.28% (w/V) activator in DMSO diluted 1:250 in DTT buffer, 25 μl, 37 °C, 30-60 min, Ex/Em=400/505 nm
T1 construct: fluorogenic deacetylation assay
T1 sequence (Q96EB6 1-747): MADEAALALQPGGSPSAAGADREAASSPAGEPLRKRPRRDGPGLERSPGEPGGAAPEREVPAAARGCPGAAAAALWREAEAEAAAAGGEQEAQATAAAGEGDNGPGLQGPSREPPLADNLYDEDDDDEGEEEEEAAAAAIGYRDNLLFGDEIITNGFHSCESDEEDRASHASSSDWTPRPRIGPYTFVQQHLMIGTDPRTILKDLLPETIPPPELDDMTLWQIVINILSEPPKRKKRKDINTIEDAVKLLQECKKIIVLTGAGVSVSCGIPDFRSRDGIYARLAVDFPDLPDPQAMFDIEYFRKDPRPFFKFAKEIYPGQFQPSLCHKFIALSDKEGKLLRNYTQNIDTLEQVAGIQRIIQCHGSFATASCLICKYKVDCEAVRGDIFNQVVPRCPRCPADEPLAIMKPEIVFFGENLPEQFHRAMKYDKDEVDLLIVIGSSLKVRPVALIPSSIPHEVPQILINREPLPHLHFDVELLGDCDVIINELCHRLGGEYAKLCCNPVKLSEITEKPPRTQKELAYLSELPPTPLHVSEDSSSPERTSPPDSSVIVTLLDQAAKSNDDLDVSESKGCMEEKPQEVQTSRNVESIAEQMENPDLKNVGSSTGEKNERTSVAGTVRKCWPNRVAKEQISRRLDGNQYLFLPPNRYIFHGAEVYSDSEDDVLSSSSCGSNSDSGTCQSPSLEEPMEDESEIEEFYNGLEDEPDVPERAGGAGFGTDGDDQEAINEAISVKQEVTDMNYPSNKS
Source text: The SIRT1 Inhibitor/Activator screening kit deacetylates the substrate with SIRT1, followed by cleavage of the deacetylated substrate to release the fluorescent group, which is detected by fluorimetry at Ex/Em=400/505 nm.
The SIRT1 activator enhances the SIRT1 activity resulting in a higher fluorescent signal compared to the control. This kit provides a rapid, simple, sensitive and reliable test, suitable for high-throughput screening of SIRT1 activators.
• Solutions of the kit: Reference ab283377 (Abeam) • Buffer • Substrate • SIRT1 • NAD • DTT • DMSO Réference 34869 (Honeywell Riedel-de-Haen)
A solution of exactly 2.28% (w/V) activator (resveratrol (Sigma Aldrich, ref.R5010) and sagerinic acid prepared according to example 5.1.) is made in DMSO. Dilute to 1:250 in the DTT buffer solution.
Preparation of the enzyme solution: Make the following additions to 3 separate wells:
• 1. To the SIRT1 enzyme solution wells, add: • 25 μl of undiluted activator solution (2.28% solution) in a well as activator control (AC) • 25 μl of DTT-free buffer in a well as an enzyme control (EC) • 25 μl of diluted activator solution as assay (S) • 2. In another well, add 50 μl of DTT-free buffer as a blank control (without enzyme). • 3. Mix well and incubate the plaque for 5 minutes at 37 °C
Preparation of the substrate: After incubation, make the following additions to each well:
Mix and incubate at 37 °C for 30-60 min.
Mix well and incubate for 10 min at 37 °C, protected from light.
Read the fluorescence (Ex/Em=400/505 nm).
The activation of sirtuin-1 by sagerinic acid was compared with that of resveratrol as a reference molecule.

Collagenase = Collagenase activity kit (Sigma Aldrich MAK293, FALGPA substrate), anti-collagenase activity; assay type: biochemical; conditions: vs reference molecule hamamelitannin
Description: A collagenase activity analysis kit (Sigma Aldrich MAK293) is used. The kit allows to screen collagenase inhibitors by measuring collagenase activity using a synthetic peptide (FALGPA) that mimics the structure of the collagen.
• Solutions of the kit: Reference MAK293-1KT (Sigma Aldrich) • Collagenase buffer (MAK293A-KC) • Collagenase solution (MAK293B-KC) • Collagenase substrate (MAK293C-KC) • Pharmethyl 96° ethyl alcohol, Reference 11371014 (Cristalco) • Purified water
A solution is made of exactly 1% (w/V) hamamelitannin (Extrasynthesis ref. 0958) in ethyl alcohol.
A solution of exactly 1% (w/V) sagerinic acid (prepared according to example 5.1.) is made in purified water.
as §1
• After addition, stir quickly by hand • Place in an oven at 37 °C for 30 minutes • Add 1.6 mL of purified water. Mix well. • Read the DO: Sample against blank, spectrophotometer at 345 nm.
The anti-collagenase activity of sagerinic acid was compared with that of hamamelitannin as a reference molecule.
In absolute values: Y=[(DOBlank 2−DOTest)−(DOBlank 1−DOcontrol)]/(DOBlank 1−DOcontrol)]×100

With `Cc1sc[n+](CC(=O)c2ccccc2)c1C` [Alagebrium, reference compound] the “Activity (protein deglycating activity)” value [1] was 28.79 arbitrary dimensionless unit.

For `O=C1O[C@H]([C@@H](O)CO)C(O)=C1O` [Ascorbic acid, ascorbic acid, reference compound], the “Activity (elimination of DPPH free radical)” value [2] was 5.26 arbitrary dimensionless unit.

For `Oc1ccc(C=Cc2cc(O)cc(O)c2)cc1` [Resveratrol, resveratrol, reference compound], the “Activity (activation of sirtuin-1)” value (SIRT1) was 80.54 arbitrary dimensionless unit.

With `O=C(O[C@H](Cc1ccc(O)c(O)c1)C(=O)O)C1C(c2ccc(O)c(O)c2)C(C(=O)O[C@H](Cc2ccc(O)c(O)c2)C(=O)O)C1c1ccc(O)c(O)c1` (stereo partly shown) [Sagerinic acid] the “protein deglycating activity (in words)” value [1] was “good protein deglycating activity”, the “Activity (protein deglycating activity)” value [1] was 16.78 arbitrary dimensionless unit and the “effect on sirtuin activation (in words)” value (SIRT1) was “good effect on sirtuin activation”. The “Activity (activation of sirtuin-1)” value (SIRT1) was 26.56 arbitrary dimensionless unit, the “Activity (elimination of DPPH free radical)” value [2] was 9.70 arbitrary dimensionless unit and the “effect in eliminating free radicals relative to ascorbic acid” value ([2]; vs ascorbic acid) was “almost twice the effect of ascorbic acid”. For the same compound, the “inhibitory effect on proteases (collagenases) relative to hamamelitannin” value (Collagenase) was “more than 2 times”.
